Data: US8329859B2, “Peptides that home to tumor lymphatic vasculature and methods of using same” (Sanford-Burnham Medical Research Institute, priority 2001, dated 2012)
Entries after “also recorded” stand apart in the source; their conditions may differ. No end group written: not given here.

Experiments:
[1] = system: MDA-MB-435 tumor lymphatic vasculature; experiment: Localization in 435 tumors after tail vein injection, with blood vessel and lymphatic marker staining; type: in vivo, nude mice
Experimental: Localization of phage displaying SEQ ID NO: 1 was analyzed with anti-T7 phage antibody following intravenous injection of CGNKRTRGC (SEQ ID NO: 1)-displaying phage into the tail vein of nude mice carrying an MDA-MB-435 tumor. […] Similar results were obtained by a phage overlay assay in which phage were added onto frozen tissue sections, rather than being injected into the mice.
An anti-T7 antiserum was prepared by immunizing New Zealand white rabbits with 10^10 pfu of T7 nonrecombinant phage (Novagen). The initial immunization performed in complete Freund's Adjuvant, while boosters were administered in incomplete Freund's Adjuvant. The antibody titer was estimated by ELISA, and the antiserum was absorbed against BLT5615 bacterial and mouse liver lysates. Phage were detected using anti-T7 phage antiserum (1:1000 dilution) and goat anti-rabbit secondary antibody conjugated to fluorescein.
(§1) Detection of fluorescent peptides and biotin-conjugated tomato lectin was performed as follows. Fluorescein-conjugated peptide CGNKRTRGC (SEQ ID NO: 1) was prepared as described above. The peptide (100 μg in 200 μl of PBS) was injected into the tail vein of mice bearing MDA-MB-435 breast carcinoma tumors. After 10 minutes, biotin-conjugated lycopersicon esculentum (tomato) lectin (100 μg in 200 μl of PBS; Vector; Burlingame, Calif.) was also injected into the tail vein. After 5 minutes, the mouse was perfused through the heart with 4% paraformaldehyde. Tissues were removed and frozen in O.C.T. embedding medium (Tissue-Tek; Torrence, Calif.). Blood vessels were visualized by detecting the tomato lectin with streptavidin-conjugated Alexa 594 (Molecular Probes; Eugene, Oreg.). Green staining indicated the presence of peptide SEQ ID NO: 1, while red staining indicated the presence of tomato lectin.
MDA-MB-435 breast carcinoma tumors contain lymphatic vessels that are positive for markers of lymphatic endothelial cells. To determine whether CGNKRTRGC (SEQ ID NO: 1) homed to the 435 tumor lymphatics, tumor sections were stained with the lymphatic markers VEGFR-3 and LYVE-1. Lymphatic vessels were visualized using a rat anti-mouse VEGFR-3 antibody or with rabbit anti-LYVE-1 antibody produced as described below.
LYVE-1 antibody was produced by immunizing New Zealand White rabbits with a peptide encoding the 19 most C-terminal residues of mouse LYVE-1 (Prevo et al., J. Biol. Chem. 276:19420 (2001)) conjugated to keyhole limpet hemocyanin (KLH; Pierce; Iselin, N.J.). The initial immunization was done in complete Freund's Adjuvant, with boosters performed in incomplete Freund's Adjuvant. Specific antibody was obtained following affinity purification with the peptide coupled to Sulfolink Gel (Pierce). Tissues were processed for fifteen minutes following injection with fluorescein-conjugated peptide using rat anti-mouse anti-VEGFR-3, and rabbit anti-LYVE-1. The anti-LYVE-1 antibody was used at a 1:500 dilution on cryo sections, followed by detection with goat anti-rabbit secondary antibody conjugated to Alexa 594 (Molecular Probes).

[2] = system: MDA-MB-435 human breast carcinoma cell xenografts; experiment: Tumor treatment study; type: in vivo, nude mice; conditions: 67 nmol intravenously twice a week; after about two weeks of treatment; FIG. 8; listed as peptide SEQ ID NO: 1
Experimental: A tumor treatment study was performed using MDA-MB-435 human breast carcinoma cell xenografts prepared by subcutaneously injecting 1×10^6 cells in 200 μl PBS into nude mice. Mice (five per group) were treated intravenously twice a week with 67 nmol CGNKRTRGC peptide (SEQ ID NO: 1) or with PBS starting four weeks after tumor implantation. Tumor volumes were measured once a week for four weeks.

[3] = system: normal tissues; experiment: Localization of fluorescent peptide in normal tissues after intravenous injection; type: in vivo, mouse
Experimental: Several normal tissues also were studied for localization of the CGNKRTRGC (SEQ ID NO: 1) peptide.
as §1

[4] = system: primary MDA-MB-435 breast carcinoma tumor cell suspensions; experiment: Ex vivo phage binding to primary 435 tumor cell suspensions; parameters: species or system human; conditions: synthetic peptide added
Experimental: Selected phage were enriched 30-fold relative to nonrecombinant T7 phage in the tumor. Forty-eight individual clones were randomly chosen from the in vivo selected pool, and the inserts sequenced as described below. Individual clones were assayed for the ability to bind cultured 435 cells as well as cell suspensions prepared from 435 tumors.
Xenografts, tumor cell suspensions and ex vivo selections were performed essentially as follows. Nude Balb/c mice were subcutaneously injected with 1×10^6 MDA-MB-435 tumor cells to generate breast carcinoma xenografts. Human MDA-MB-435 breast carcinoma xenograft tumors were harvested 9 to 12 weeks after implantation, and tumor cell suspensions prepared using collagenase (0.5 mg/ml, Sigma).
The suspension was subjected to serial washes with 1% BSA in DME to remove unbound phage. Blood vessel endothelial cells were depleted from the tumor cell mixture using magnetic beads (Dynal; Lake Success, N.Y.) coated with anti-mouse CD31 antibody (MEC 13.3; Pharminogen; San Diego, Calif.) according to the manufacturer's instructions. Phage bound to the CD31-negative cell population were rescued by adding bacteria, and the rescued phage titered and amplified in liquid culture.

[5] = system: Cultured MDA-MB-435 cells; experiment: Trypan blue cytotoxicity in cultured MDA-MB-435 cells; type: cell-based; conditions: FIG. 7
Experimental: Cultured MDA-MB-435 cells were incubated with a control peptide (CGEKRTRGC; SEQ ID NO: 3) or with CGNKRTRGC (SEQ ID NO: 1) at 37° C. for 1, 2 or 4 hours. After staining with trypan blue, which is taken up by cells that are dead or dying, the total number of cells were counted, and the percentage of trypan blue stained cells determined. […] In particular, after four hours incubation, at least 7-fold greater trypan blue uptake was evident in cell cultures incubated with peptide SEQ ID NO: 1 as compared to cultures incubated with control peptide.

[6] = system: cultured MDA-MB-435 tumor cells; experiment: Internalization and subcellular localization in cultured MDA-MB-435 cells; type: cell-based, human; conditions: one to five hours at 37° C., FIG. 2
Experimental: A fluorescein-conjugated CGNKRTRGC (SEQ ID NO: 1) peptide was utilized to further analyze cellular internalization and subcellular localization. […] Natl. Acad. Sci. 97:13003 (2000). The fluorescein-conjugated peptides were incubated with cultured MDA-MB-435 tumor cells for one to five hours at 37° C. […] Cultured 435 cells also internalized the CGNKRTRGC (SEQ ID NO: 1) phage, although the phage accumulated in the cytoplasm of the cells.

[7] = system: cultured KRIB cells; experiment: Phage binding and peptide internalization in cultured KRIB cells; type: cell-based
[8] = system: mitochondrial membranes; conditions: 10 μM; cited from earlier work

CGNKRTRGC [CGNKRTRGC (SEQ ID NO: 1) peptide]
co-localization with macrophage marker F4/80 ([1]; VEGFR-3 positive single cells in tumor): lack of co-localization
localization within 435 tumors after tail vein injection ([1]; mouse, in vivo): accumulated in VEGFR-3 positive single cells within the tumor
mean tumor volume compared to mice administered PBS alone [2]: at least several fold less; also recorded: slowed significantly
localization in normal tissues [3]: Fluorescence was seen only in the kidney tubuli
inhibition of binding of CGNKRTRGC phage by synthetic peptide [4]: inhibited binding
trypan blue uptake relative to cultures incubated with control peptide ([5]; four hours incubation, 37° C.): at least 7 fold
cytotoxic effect compared to control peptide SEQ ID NO: 3 ([5]; later time points of 1, 2 or 4 hours, listed as peptide SEQ ID NO: 1): significantly enhanced cytotoxic effect; also recorded: significantly enhanced cytotoxicity

fluorescein-conjugated CGNKRTRGC (SEQ ID NO: 1) peptide: fluorescein-conjugated CGNKRTRGC peptide (cysteine pairing not given here; also: fluorescein conjugate, site not given here)
uptake and subcellular localization of fluorescein-conjugated peptide ([6]; listed as fluorescein-conjugated SEQ ID NO: 1): internalized and translocated to the nucleus
uptake and subcellular localization of fluorescein-conjugated peptide ([6]; listed as fluorescein-labeled peptide SEQ ID NO: 1): internalized
co-localization with lymphatic markers VEGFR-3 and LYVE-1 ([1]; 435 tumor tissue, FIG. 5): co-localized
internalization and nuclear transport in vivo ([1]; 435 tumor tissue, FIG. 5): internalized and transported into nuclei
internalization and nuclear transport in vivo ([1]; 435 tumor tissue, FIG. 5, listed as fluorescein-conjugated SEQ ID NO:1): internalized and transported into nuclei
internalization and nuclear transport in vivo ([1]; 435 tumor tissue, FIG. 5, listed as fluorescein-conjugated peptide (SEQ ID NO: 1)): accumulated in the nuclei lining the vessel-like structures
co-localization with blood vessels labeled with biotin-conjugated tomato lectin ([1]; FIGS. 3A-C): notable lack of co-localization
blood vessel markers Meca-32 and CD31 on the vessels in which the substance localized ([1]; mouse, in vivo): negative
localization within 435 tumors after tail vein injection ([1]; mouse, in vivo): localized in vessel-like structures and in individual cells within the tumor
internalization of fluorescein-labeled peptide by cultured KRIB cells [7]: internalized

D(KLAKLAK)2
mitochondrial swelling [8]: marked mitochondrial swelling
